Source: patent publication US20070207201A1, “Liquid and Semi-Solid Pharmaceutical Formulations and Processes” (Wyeth, priority 2006, published 2007)

Tests used:
Type in all cases: physicochemical
[1] = Dynamic vapor sorption (hygroscopicity) of the two crystal forms; settings: for DVS weight gain: 0–90% RH
Text: Dynamic Vapor Sorption (Allentown, Pa.) was used to measure the hygroscopicity of the anhydrate and monohydrate of the invention (see FIGS. 6 and 7). The step conditions were three hours each at 0%, 30%, 52.5%, 75% and 90% RH, two full cycles.

[2] = Chemical stability of the crystal forms on storage (HPLC); settings: non-micronized, 40° C./75% RH (monohydrate also 40° C. without humidity control), three months
Protocol: (§1) Non-micronized samples of monohydrate and anhydrate were stored at 40° C./75% RH for three months. The monohydrate was also stored at 40° C. without humidity control. During the three months, the samples were checked after two weeks, one month, two months, and three months.

[3] = Stability studies of the two crystal forms (crystal form by XRPD/TGA)
[4] = as above; settings: for Long term stability of crystal form (XRPD and TGA): non-micronized, three months
Protocol: Samples of monohydrate were stored at room temperature, 56° C., and 70° C. for one week. At room temperature, humidity was maintained at 0% RH. Humidity was not controlled for the higher temperatures.
The samples were analyzed by XRPD and TGA.
as §1

[5] = Water solubility of the two crystal forms; settings: for solubility: water, thermodynamic from solid

Compound: C=Cc1cc(O)cc2nc(-c3ccc(O)c(F)c3)oc12 [Anhydrate, 2-(3-fluoro-4-hydroxyphenyl)-7-vinyl-1,3-benzoxazol-5-ol]
- Hygroscopicity (from DVS data) [1]: largely non-hygroscopic
- DVS weight gain [1]: 0.2% gain (0–90%
- Long term chemical stability (HPLC) [2]: chemically stable
- Long term stability of crystal form (XRPD) ([3]; micronized, 25° C./60% RH, three months): did not transform to the monohydrate
- Long term stability of crystal form (XRPD) ([3]; micronized, 40° C./75% RH, after one month): partially transform to the monohydrate
- Long term stability of crystal form (XRPD) ([3]; non-micronized, 40° C./75% RH, separate study): did not show any obvious transformation
- Long term stability of crystal form (XRPD and TGA) ([4]; 40° C./75% RH): did not transform
- solubility ([5]; pH 7.29, water): 10 µg/mL
- solubility ([5]; pH 7.7, water, pH 7.70): 12.8 µg/mL

Compound: C=Cc1cc(O)cc2nc(-c3ccc(O)c(F)c3)oc12 [Monohydrate, 2-(3-fluoro-4-hydroxyphenyl)-7-vinyl-1,3-benzoxazol-5-ol]
- Hygroscopicity (from DVS data) [1]: largely non-hygroscopic
- DVS weight gain [1]: 0.1% gain (0–90% RH)
- Long term chemical stability (HPLC) [2]: chemically stable
- Short term stability of crystal form (XRPD) ([3]; 70° C. for one hour): stable
- Short term stability of crystal form (XRPD) ([3]; 90° C. after one half hour): partially dehydrated
- Short term stability of crystal form (XRPD) ([3]; 90° C. after one hour): completely dehydrated
- Medium term stability of crystal form (XRPD and TGA) ([4]; 56° C., humidity not controlled, one week): no obvious dehydration
- Medium term stability of crystal form (XRPD and TGA) ([4]; 70° C., humidity not controlled, after 1 day): no obvious hydration
- Medium term stability of crystal form (XRPD and TGA) ([4]; 70° C., humidity not controlled, after 4 days): partially dehydrated
- Medium term stability of crystal form (XRPD and TGA) ([4]; 70° C., humidity not controlled, after 7 days): mostly dehydrated
- Long term stability of crystal form (XRPD and TGA) ([4]; 40° C. without humidity control): did not transform
- Long term stability of crystal form (XRPD and TGA) ([4]; 40° C./75% RH): did not transform
- Medium term stability of crystal form (XRPD and TGA) ([4]; room temperature, 0% RH, one week): no obvious dehydration
- Water solubility compared between the two forms [5]: significantly lower solubility than the anhydrate
- solubility ([5]; pH 7.11, water): 2.34 µg/mL
- solubility ([5]; pH 7.51, water): 2.21 µg/mL
